The text below walks through data of ChEMBL document CHEMBL5136996, “Semisynthesis and Non-Small-Cell Lung Cancer Cytotoxicity Evaluation of Germacrane-Type Sesquiterpene Lactones from Elephantopus scaber” (J Nat Prod, 2022).

In series [1] the test system is A549. The series is described as follows: Cytotoxicity against human A549 cells assessed as reduction in cell viability incubated for 48 hrs by MTT assay. The settings on record: A549, 48 h. The series is classed as functional, cell-based. A general note: Formazan colour is commonly taken as a measure of viable cells.
For series [2], the system named is NCI-H460. The series is described as follows: Cytotoxicity against human NCI-H460 cells assessed as reduction in cell viability incubated for 48 hrs by MTT assay. The series is classed as functional, cell-based. The following applies: NCI-H460, 48 h.
Series [3] is described as follows: Cytotoxicity against rat Primary hepatocytes assessed as cell viability at 25 uM incubated for 12 hrs. It is filed as toxicity, cell-based, Hepatocyte. The following applies: read-out: Activity.
The test system of series [4] is A549. The series is described as follows: Induction of cell cycle arrest in human A549 cells assessed as accumulation of cells at G2/M phase incubated for 48 hrs by PI staining based flow cytometry (reference value: 9.7 to 17.2%). It is filed as functional.
Series [5] deals with A549. The series is described as follows: Induction of apoptosis in human A549 cells assessed as viable cells at 3 uM incubated for 48 hrs by AnnexinV-FITC/PI staining based flow cytometry (reference value: 91.5 to 92.9%). It is filed as functional. The following applies: read-out: Activity. On the technique in general: A flow cytometer gives signals particle by particle.
Series [6] relates to A549. The series is described as follows: Induction of apoptosis in human A549 cells assessed as early apoptotic cells at 3 uM incubated for 48 hrs by AnnexinV-FITC/PI staining based flow cytometry (reference value: 2.07 to 3.24%). The series is classed as functional.
In series [7] the test system is A549. Nature of the series: Induction of apoptosis in human A549 cells assessed as late apoptotic cells at 3 uM incubated for 48 hrs by AnnexinV-FITC/PI staining based flow cytometry (reference value: 1.58 to 2.23%). The series is classed as functional.
Series [8] concerns A549. Nature of the series: Induction of apoptosis in human A549 cells assessed as necrotic cells at 3 uM incubated for 48 hrs by AnnexinV-FITC/PI staining based flow cytometry (reference value: 2.23 to 4.25%). It is filed as functional.
In series [9] the test system is A549. Nature of the series: Induction of apoptosis in human A549 cells assessed as viable cells at 10 uM incubated for 48 hrs by AnnexinV-FITC/PI staining based flow cytometry (reference value: 91.5 to 92.9%). The series is classed as functional. The settings on record: read-out: Activity.
The subject of series [10] is A549. The series is described as follows: Induction of apoptosis in human A549 cells assessed as early apoptotic cells at 10 uM incubated for 48 hrs by AnnexinV-FITC/PI staining based flow cytometry (reference value: 2.07 to 3.24%). The series is classed as functional.
The test system of series [11] is A549. Nature of the series: Induction of apoptosis in human A549 cells assessed as late apoptotic cells at 10 uM incubated for 48 hrs by AnnexinV-FITC/PI staining based flow cytometry (reference value: 1.58 to 2.23%). The series is classed as functional.
In series [12] the test system is A549. The series is described as follows: Induction of apoptosis in human A549 cells assessed as necrotic cells at 10 uM incubated for 48 hrs by AnnexinV-FITC/PI staining based flow cytometry (reference value: 2.23 to 4.25%). The series is classed as functional.
Series [13] has as its system A549. The series is described as follows: Induction of apoptosis in human A549 cells assessed as increase in cleaved caspase-3 expression level at 3 to 10 uM incubated for 48 hrs by western blot analysis. The series is classed as functional, cell-based. The following applies: dose 3-10 µM.
For series [14], the system named is A549. The series is described as follows: Induction of apoptosis in human A549 cells assessed as increase in cleaved caspase-9 expression level at 3 to 10 uM incubated for 48 hrs by western blot analysis. The series is classed as functional, cell-based. The settings on record: dose 3-10 µM.
The test system of series [15] is A549. The series is described as follows: Induction of intracellular ROS generation in human A549 cells incubated for 48 hrs by H2DCF-DA staining based flow cytometry. The series is classed as functional, cell-based. The settings on record: dose 3-10 µM, DDE = dose-dependent effect.
Series [16] has as its system A549. The series is described as follows: Induction of apoptosis in human A549 cells assessed as decrease in mitochondrial membrane potential by measuring reduction in ratio of red to green fluorescence intensity at 3 to 10 uM incubated for 48 hrs by JC-1 staining based flow cytometry. It is filed as functional, cell-based. The following applies: dose 3-10 µM.

Structures are written as SMILES. The source made the active and inactive calls. No cut-off for these calls is given here. Some results are limits rather than exact numbers.

Broadly, the IC50 is the concentration that inhibits the measured activity by half. For the compound `C=C1C(=O)O[C@H]2CC3=C[C@H](C/C(C)=C/[C@@H](OC(=O)c4ccc(C(F)(F)F)cc4)[C@H]12)OC3=O`, the IC50 in series [1] and in series [2] was greater than 10 µM each time.
As to `C=C1C(=O)O[C@H]2CC3=C[C@H](C/C(C)=C/[C@@H](OC(=O)/C=C/c4cccs4)[C@H]12)OC3=O`, the IC50 in series [1] is 4.3 µM; in series [2] it was 2.9 µM. In addition, the viability at 12 h, 25 µM in [3] was determined as 96.7%. The Activity came out at 32.6% in series [4]; 14.8% in series [6]; 1.45% in [7]; 0.53% in series [8]; 27.3% in series [10]; 23.9% in [11]. Moreover, the Activity is 10.6% in series [12] and “Dde” in series [15]. For the same compound, the viability at 3 µM in series [5] stood at 83.2%. Further, in series [9], the viability at 10 µM amounted to 38.2%. In addition, the outcome in [13], in [14] and in series [16] was Active.
In the case of `C=C1C(=O)O[C@H]2CC3=C[C@H](C/C(C)=C/[C@@H](OC(=O)/C=C\c4ccc5c(c4)OCO5)[C@H]12)OC3=O`, the figures for the IC50 in series [1] and in [2] were 6.1 µM and greater than 10 µM, respectively.
The matching figures for `C=C1C(=O)O[C@H]2CC3=C[C@H](C/C(C)=C/[C@@H](OC(=O)/C=C/c4ccccc4)[C@H]12)OC3=O`: 4.8 µM and greater than 10 µM.
Regarding `C=C1C(=O)O[C@H]2CC3=C[C@H](C/C(C)=C/[C@@H](OC(=O)/C=C/c4cccc(OC)c4)[C@H]12)OC3=O`, the IC50 in series [1] is 6.2 µM; in [2], greater than 10 µM.
The matching figures for `C=C1C(=O)O[C@H]2CC3=C[C@H](C/C(C)=C/[C@@H](OC(=O)/C=C/c4ccc(C(F)(F)F)cc4)[C@H]12)OC3=O`: 5.9 µM and 1.4 µM.
`C=C1C(=O)O[C@H]2CC3=C[C@H](C/C(C)=C/[C@@H](OC(=O)CCl)[C@H]12)OC3=O`: the half-inhibitory concentration (IC50) in series [1] and in series [2] was greater than 10 µM in each case.
Regarding `C=C1C(=O)O[C@H]2CC3=C[C@H](C/C(C)=C/[C@@H](OC(=O)c4ccncc4)[C@H]12)OC3=O`, the values for the half-maximal inhibitory concentration (IC50) in series [1] and in series [2] were greater than 10 µM and 5.6 µM, respectively.
On the same counts, the results for `C=C1C(=O)O[C@H]2CC3=C[C@H](C/C(C)=C/[C@@H](OC(=O)C4CC4)[C@H]12)OC3=O` are 3.2 µM and 3 µM.
On the same counts, the results for `C=C1C(=O)O[C@@H]2C3O[C@]3(C)CC/C=C(\C)CC[C@@H]12` (stereo not given in full) are greater than 10 µM and 9.6 µM.
On the same counts, the results for `C=C1C(=O)O[C@H]2CC3=C[C@H](C/C(C)=C/[C@@H](OC(=O)CCCCC(=O)O[C@@H]4/C=C(\C)C[C@H]5C=C(C[C@@H]6OC(=O)C(=C)[C@H]64)C(=O)O5)[C@H]12)OC3=O` are 2.1 µM and 8.1 µM.
Take `C=C1C(=O)O[C@H]2CC3=C[C@H](C/C(C)=C/[C@@H](OC(=O)CC(C)C)[C@H]12)OC3=O`: the values for the IC50 in [1] and in series [2] were 2.5 µM and 3.8 µM, respectively.
Consider `C=C1C(=O)O[C@H]2CC3=C[C@H](C/C(C)=C/[C@@H](O)[C@H]12)OC3=O`, for which the IC50 in series [1] and in series [2] was greater than 10 µM each time.
For the compound `C=C1C(=O)O[C@H]2CC3=C[C@H](C/C(C)=C/[C@@H](OC(=O)c4ccc(C(=O)O[C@@H]5/C=C(\C)C[C@H]6C=C(C[C@@H]7OC(=O)C(=C)[C@H]75)C(=O)O6)cc4)[C@H]12)OC3=O`, the half-maximal inhibitory concentration (IC50) in [1] was 1.5 µM; in [2], 0.7 µM.
Turning to `C=C1C(=O)O[C@H]2CC3=C[C@H](C/C(C)=C/[C@@H](OC(=O)C(C)(C)CC)[C@H]12)OC3=O`, the IC50 in series [1] was 2.2 µM; in series [2] it was 6.1 µM.
The matching figures for `C=C1C(=O)O[C@H]2CC3=C[C@H](C/C(C)=C/[C@@H](OC(=O)c4ccc(-c5ccccc5)cc4)[C@H]12)OC3=O`: 4.6 µM and 3.5 µM.
As to `C=C1C(=O)O[C@H]2CC3=C[C@H](C/C(C)=C/[C@@H](OC(=O)CCCCBr)[C@H]12)OC3=O`, the 50% inhibitory concentration (IC50) in series [1] and in [2] was greater than 10 µM in each case.
`C=C1C(=O)O[C@H]2CC3=C[C@H](C/C(C)=C/[C@@H](OC(=O)CCCC(=O)O[C@@H]4/C=C(\C)C[C@H]5C=C(C[C@@H]6OC(=O)C(=C)[C@H]64)C(=O)O5)[C@H]12)OC3=O`: the half-inhibitory concentration (IC50) in series [1] was 5.6 µM; in series [2] it was greater than 10 µM.
The matching figures for `C=C1C(=O)O[C@H]2CC3=C[C@H](C/C(C)=C/[C@@H](OC(=O)/C=C/c4ccncc4)[C@H]12)OC3=O`: 4 µM and 2.1 µM.
The matching figures for `C=C1C(=O)O[C@H]2CC3=C[C@H](C/C(C)=C/[C@@H](OC(=O)/C=C/c4ccc5c(c4)OCO5)[C@H]12)OC3=O`: 4.6 µM and 9.3 µM.
On the same counts, the results for `C=C1C(=O)O[C@H]2CC3=C[C@H](C/C(C)=C/[C@@H](OC(=O)c4ccc([N+](=O)[O-])cc4)[C@H]12)OC3=O` are greater than 10 µM and greater than 10 µM.
Regarding `C=C1C(=O)O[C@H]2CC3=C[C@H](C/C(C)=C/[C@@H](OC(=O)/C=C/c4ccc(N(C)C)cc4)[C@H]12)OC3=O`, the IC50 in series [1] is greater than 10 µM; in [2] it was 1.3 µM.
The matching figures for `C=C1C(=O)O[C@H]2CC3=C[C@H](C/C(C)=C/[C@@H](OC(=O)CCSSCCC(=O)O[C@@H]4/C=C(\C)C[C@H]5C=C(C[C@@H]6OC(=O)C(=C)[C@H]64)C(=O)O5)[C@H]12)OC3=O`: 3.1 µM and 7.8 µM.
With `C=C1C(=O)O[C@H]2CC3=C[C@H](C/C(C)=C/[C@@H](OC(=O)C4(NC(=O)OCc5ccccc5)CC4)[C@H]12)OC3=O`, the values for the IC50 in [1] and in [2] were 5.8 µM and 3 µM, respectively.
Turning to `C=C1C(=O)O[C@H]2CC3=C[C@H](C/C(C)=C/[C@@H](OC(=O)CCCCC)[C@H]12)OC3=O`, the IC50 was greater than 10 µM in series [1] and 5.9 µM in [2].
As for `C=C1C(=O)O[C@H]2CC3=C[C@H](C/C(C)=C/[C@@H](OC(=O)c4ccc(C(C)=O)cc4)[C@H]12)OC3=O`, the concentration for half-maximal inhibition (IC50) in series [1] came out at 2.3 µM; in [2], 2.2 µM.
The matching figures for `C=C1C(=O)O[C@H]2CC3=C[C@H](C/C(C)=C/[C@@H](OC(=O)CC4CCCCC4)[C@H]12)OC3=O`: 6.9 µM and 2 µM.
On the same counts, the results for `C=C1C(=O)O[C@@H]2/C=C(\C)C[C@H]3C=C(C[C@H](OC(=O)/C(C)=C\C)[C@@H]12)C(=O)O3` are greater than 10 µM and greater than 10 µM.
On the same counts, the results for `C=C1C(=O)O[C@H]2CC3=C[C@H](C/C(C)=C/[C@@H](OC(=O)CCC(=O)O[C@@H]4/C=C(\C)C[C@H]5C=C(C[C@@H]6OC(=O)C(=C)[C@H]64)C(=O)O5)[C@H]12)OC3=O` are greater than 10 µM and greater than 10 µM.
As to `C=C1C(=O)O[C@H]2CC3=C[C@H](C/C(C)=C/[C@@H](OC(=O)C45CCC(C)(C(=O)O4)C5(C)C)[C@H]12)OC3=O`, the IC50 was found to be 3.4 µM in [1] and 2 µM in series [2].
The matching figures for `CO[C@H]1C(=O)O[C@H]2CC3=C[C@H](C/C(C)=C/[C@@H](O)[C@@H]21)OC3=O`: greater than 10 µM and greater than 10 µM.
On the same counts, the results for `C=C1C(=O)O[C@H]2CC3=C[C@H](C/C(C)=C/[C@@H](OC(=O)c4ccc(C(=O)O[C@@H]5/C=C(\C)C[C@H]6C=C(C[C@@H]7OC(=O)C(=C)[C@H]75)C(=O)O6)s4)[C@H]12)OC3=O` are 3.6 µM and 5.8 µM.
On the same counts, the results for `C=C1C(=O)O[C@H]2CC3=C[C@H](C/C(C)=C/[C@@H](OC(=O)C4CCC(F)(F)CC4)[C@H]12)OC3=O` are 6.4 µM and greater than 10 µM.
